Laboratory results taken from patent EP0233459A1, “Medicament containing a magnesium-urea complex of acetylsalicylic acid and process for the preparation of this complex” (ARTIKA INTERNATIONAL (HONG-KONG) LIMITED, priority 1986, dated 1987).

Key:
[1] = system: oedème provoqué sur patte de rat; assay: Induced rat paw oedema (formol or ovalbumine; tables do not say which); type: in vivo; settings: for Δ V1 heure: 1 heure; for Δ V1 heure / Δ V3 heures / VARIATIONS DE VOLUME EXPRIME EN % / INDICE DE PROTECTION: 20 mg/kg en équivalent aspirine; for Δ V3 heures: 3 heures
Description: Deux tests de production d'oedème provoqué sur patte de rat, l'un au formol, et l'autre à l'ovalbumine ont été choisis. Dans les deux cas les mesures ont été opérées en incluant une série d'animaux traitée avec de l'aspirine, en comparaison de celle traitée avec l'ASMU.
La dose d'anti-inflammatoire est de 20 mg/kg dans les trois cas, en équivalent aspirine.

[2] = system: souris; assay: Hot plate test (analgesic activity); type: in vivo; settings: moyenne de dix essais
From the text: Le test dit "de la plaque chauffante" a donc été pratiqué pour déterminer de la valeur de l'ASMU en comparaison avec l'aspirine. Le principe de la méthode consiste à poser une souris sur une plaque dont on a élevé la température en fonction du temps. On note la température à laquelle la souris saute, la sensation de chaleur devenant douleur. Cette température est relativement fixe pour chaque animal.
En recommançant la même expérience avec la souris après administration d'une dose d'un analgésique, on notera une température plus élevée qui sera fonction de la dose et de l'action antalgique de la substance.
Dans le tableau V ci-après ont été rassemblés les ré-sultats, correspondants à une moyenne de dix essais obtenus pour l'aspirine (AAS), l'"ASPEGIC" (ASL) et l'ASMU.

[3] = system: oreille de lapin; settings: in vivo
From the text: Une expérience a été menée sur lapins, afin de déterminer le temps de saignement modifié par l'administration d'ASMU et d'aspirine à doses équivalentes.

[4] = system: muqueuse gastrique; type: in vivo, rat
From the text: En addition des résultats obtenus lors de l'étude de la toxicité générale de l'ASMU, une expérimentation particulière a été menée sur le rat pour déterminer de façon plus précise l'action irritant sur la muqueuse gastrique que peut développer l'ASMU par rapport à l'aspirine.
Le rat placé dans des conditions de contrainte (cage de petite dimension, n'interdisant pas le mouvement, mais empêchant l'animal de se déplacer et même de se retourner) pendant une durée de douze heures pendant plusieurs jours, développe rapidement une irritation de l'estomac qui évolue jusqu'à l'ulcère.
Sur cet animal sensibilisé, on peut tester, en même temps que la contrainte, l'action de médicaments irritants qui accélèrent le processus de formation de l'ulcère. En fin d'expé-rience, on sacrifie les animaux, et l'examen de la muqueuse gastrique permet de tirer des conclusions sur le pouvoir irritant des substances en comparaison avec les produits de référence.

[5] = même dose d'aspirine, une heure après administration; 60 min; cited from earlier work
[6] = aspirine, literature knowledge; cited from earlier work
[7] = une heure après l'administration, literature knowledge; cited from earlier work
[8] = pH of the aqueous solution; type: physicochemical; settings: solution aqueuse, dix pour cent (p/v)
From the text: La solution aqueuse du complexe ASMU, à concentration de dix pour cent (p/v), présente une valeur de pH très proche de 6, donc proche de la neutralité et tout à fait compatible avec celui du pH sanguin.

[9] = system: rat; settings: in vivo
From the text: (§1) Des expérimentations ont été réalisées sur l'ASMU. La toxicité aiguë a été étudiée par la détermination classique de la DL₅₀, correspondant à la dose de substance qui, administrée à un groupe d'animaux, provoque la port de la moitié d'entre eux.

[10] = system: souris; settings: in vivo
From the text: as §1

[11] = system: rat; settings: in vivo; remark: listed apart in the source
[12] = system: porc; settings: in vivo
[13] = system: ostéochondrites déformantes infectieuses; assay: Therapeutic use in infectious deforming osteochondritis; type: in vivo; settings: tous les cas traités
From the text: A titre d'exemple d'application thérapeutique inhabituelle, on a pu observer l'action curative de l'ASMU dans le traitement d'ostéochondrites déformantes infectieuses. […] Seule la déformation a persisté lorsqu'elle existait, comme on pouvait s'y attendre.

[14] = état sec
[15] = human, in vivo, po, 5 h
[16] = in vivo
[17] = in vivo; remark: listed apart in the source
From the text: L'étude de la biodisponibilité de l'ASMU a été effec­tuée sur diverses espèces animales et sur l'homme, en réalisant des dosages de la forme acétylée et désacétylée dans le temps.

With `CC(=O)Oc1ccccc1C(=O)O` [A S L] the “Δ V1 heure” value ([1]; 20 mg/kg) was 0,490±0,04 cm^3, the “Δ V3 heures” value ([1]; 20 mg/kg) was 0,700±0,15 cm^3 and the “VARIATIONS DE VOLUME EXPRIME EN %” value ([1]; A 1 heure, 20 mg/kg) was 50,16%. The “VARIATIONS DE VOLUME EXPRIME EN %” value ([1]; A 3 heures, 20 mg/kg) was 72,29%, the “INDICE DE PROTECTION” value ([1]; à 1 heure, 20 mg/kg) was 35% and the “INDICE DE PROTECTION” value ([1]; à 3 heures, 20 mg/kg) was 43%. The “Δt(°C)” value ([2]; 1 heure après administration) was 2,15 °C, the “Δt(°C)” value ([2]; 2 heures après administration) was 1,90 °C and the “Δt(°C)” value ([2]; 3 heures après administration) was 0,45 °C. The “Δt(°C)” value ([2]; ½ heure après administration) was 1,25 °C and the “ALLONGEMENT DU TEMPS DE SAIGNEMENT” value [3] was 35%.
With `CC(=O)Oc1ccccc1C(=O)O` [AAS, aspirine] the “Δ V1 heure” value ([1]; 20 mg/kg) was 0,580±0,03 cm^3, the “Δ V3 heures” value ([1]; 20 mg/kg) was 0,930±0,05 cm^3 and the “VARIATIONS DE VOLUME EXPRIME EN %” value ([1]; A 1 heure, 20 mg/kg) was 72%. The “VARIATIONS DE VOLUME EXPRIME EN %” value ([1]; A 3 heures, 20 mg/kg) was 115,01%, the “INDICE DE PROTECTION” value ([1]; à 1 heure, 20 mg/kg) was 7% and the “INDICE DE PROTECTION” value ([1]; à 3 heures, 20 mg/kg) was 10%. For the same molecule, the “Δt(°C)” value ([2]; 1 heure après administration) was 1,15 °C, the “Δt(°C)” value ([2]; 2 heures après administration) was 1,40 °C and the “Δt(°C)” value ([2]; 3 heures après administration) was 0,75 °C. For the same molecule, the “Δt(°C)” value ([2]; ½ heure après administration) was 0,90 °C, the “animaux traités avec ulcères” value ([4]; rat sous contrainte) was 80 pour cent and the “ALLONGEMENT DU TEMPS DE SAIGNEMENT” value [3] was 66%. For the same molecule, the “quantités d'aspirine retrouvées dans le sang” value [5] was ~3 mg par litre, the “part de la dose absorbée par l'organisme” value [6] was “deux tiers” and the “part de la dose initiale sous la forme acétylée” value [7] was ~10 pour 100.
For `CC(=O)Oc1ccccc1C(=O)[O-].CC(=O)Oc1ccccc1C(=O)[O-].NC(N)=O.[Mg+2]` [ASMU, acétylsalicylate de magnésium-urée], the pH [8] was ~6, the “Δ V1 heure” value [1] was 0,150±0,04 cm^3 and the “Δ V3 heures” value [1] was 0,170±0,03 cm^3. The “VARIATIONS DE VOLUME EXPRIME EN %” value ([1]; A 1 heure) was 16,48%, the “VARIATIONS DE VOLUME EXPRIME EN %” value ([1]; A 3 heures) was 18,61% and the “activité anti-inflammatoire par rapport à celle de l'aspirine” value ([1]; en moyenne, tests au formol et à l'ovalbumine) was “dix fois supérieure”. For the same molecule, the “INDICE DE PROTECTION” value ([1]; à 1 heure) was 78,6%, the “INDICE DE PROTECTION” value ([1]; à 3 heures) was 85,4% and the “Δt(°C)” value ([2]; 1 heure après administration) was 4,75 °C. For the same molecule, the “Δt(°C)” value ([2]; 2 heures après administration) was 4,90 °C, the “Δt(°C)” value ([2]; 3 heures après administration) was 4,90 °C and the “Δt(°C)” value ([2]; ½ heure après administration) was 3,70 °C. The “toxicité aiguë (DL₅₀) diminuée par rapport à l'équivalent aspirine” value [9] was ~20 pour cent, the “toxicité aiguë (DL₅₀) diminuée par rapport à l'équivalent aspirine” value [10] was ~20 pour cent and the “toxicité chronique: examens cliniques et anatomopathologiques” value [11] was “n'a pas provoqué d'anomalie particulière”. The “toxicité chronique: lésion rénale ou stomacale” value [11] was “aucun signe de lésion rénale ou stomacale”, the “toxicité chronique: examens cliniques et anatomopathologiques” value [12] was “n'a pas provoqué d'anomalie particulière” and the “toxicité chronique: lésion rénale ou stomacale” value [12] was “aucun signe de lésion rénale ou stomacale”. The “irritation de la muqueuse gastrique” value ([4]; rat, in vivo) was “irritation comparable, mais légèrement supérieure à celle des témoins”, the “ALLONGEMENT DU TEMPS DE SAIGNEMENT” value [3] was 7% and the action curative [13] was “l'inflammation a regressé, puis disparu”. The “durée de conservation sans altération notable” value [14] was “deux ans et demi”, the acétylsalicylémie [15] was 40 mg par litre de plasma and the absorption [16] was “pratiquement complète”. The “acétylsalicylémie, fois plus élevée que celle d'une dose équivalente d'aspirine” value [17] was “entre dix et quinze” and the “salicylémie moyenne, % de la quantité circulante” value [17] was ~10 pour cent.
